Results taken from ChEMBL document CHEMBL1201862, “PubChem BioAssay data set” (2004).
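The compound was tested at five concentrations on cells cultured in 96-well plates, with a 48-hour exposure period. Abbreviation: GI50, concentration required for 50% inhibition of growth.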 The source made the active and inactive calls. Rule as the data show it: active = GI50 up to about 1.1 µM and inactive = higher.

Columns and labels:
Assay in all cases: inhibition of tumour cell growth, NCI panel, 48 h
NCI-H23 = tested on: NCI-H23
OVCAR-3 = tested on: OVCAR-3
U-251 = tested on: U-251
RPMI-8226 = tested on: RPMI-8226
CAKI-1 = tested on: CAKI-1
NCI/ADR-RES = tested on: NCI/ADR-RES
SNB-19 = tested on: SNB-19
786-0 = tested on: 786-0
Hs-578T = tested on: Hs-578T
NCI-H226 = tested on: NCI-H226
HCT-116 = tested on: HCT-116
RXF 393 = tested on: RXF 393
HOP-92 = tested on: HOP-92
SK-MEL-28 = tested on: SK-MEL-28
SF-539 = tested on: SF-539
T47D = tested on: T47D
UO-31 = tested on: UO-31
HL-60 = tested on: HL-60
KM12 = tested on: KM12
DMS-114 = tested on: DMS-114

Row | Compound | GI50 (NCI-H23) | GI50 (OVCAR-3) | GI50 (U-251) | GI50 (RPMI-8226) | GI50 (CAKI-1) | GI50 (NCI/ADR-RES) | GI50 (SNB-19) | GI50 (786-0) | GI50 (Hs-578T) | GI50 (NCI-H226) | GI50 (HCT-116) | GI50 (RXF 393) | GI50 (HOP-92) | GI50 (SK-MEL-28) | GI50 (SF-539) | GI50 (T47D) | GI50 (UO-31) | GI50 (HL-60) | GI50 (KM12) | GI50 (DMS-114)
1 | CCOC(=O)C(NC(=O)c1ccccc1)(Nc1ccc(S(=O)(=O)Nc2cc(C)nc(C)n2)cc1)C(F)(F)F (stereo not drawn) | > 100 µM (inactive) | > 100 µM (inactive) | > 100 µM (inactive) | > 100 µM (inactive) | > 100 µM (inactive) | > 100 µM (inactive) | > 100 µM (inactive) | > 100 µM (inactive) | > 100 µM (inactive) | > 100 µM (inactive) | > 100 µM (inactive) | > 100 µM (inactive) | > 100 µM (inactive) | > 100 µM (inactive) | > 100 µM (inactive) | > 100 µM (inactive) | > 100 µM (inactive) | > 100 µM (inactive) | > 100 µM (inactive) | –
2 | COC1/C=C/C(C)C(C(C)C(OC)C(C)CCC(=O)C(C)C(C/C=C/N(C)C=O)OC)OC(=O)/C=C/C=C(\C)CC(OC)C(OC)C2=CC(=O)O[C@@H](C(C)C(OC)CC(OC)/C=C/C(C)C(O)C1)[C@H]2O (stereo partly drawn) | 0.145 µM (active) | 0.0681 µM (active) | 0.111 µM (active) | 0.0356 µM (active) | 0.0508 µM (active) | 0.226 µM (active) | 0.171 µM (active) | 0.147 µM (active) | 0.0336 µM (active) | 0.06 µM (active) | < 0.0222 µM (active) | 0.121 µM (active) | 0.0284 µM (active) | 0.192 µM (active) | 0.128 µM (active) | 0.208 µM (active) | 0.137 µM (active) | 0.0964 µM (active) | 0.164 µM (active) | –
3 | COc1ccc(/C(=N\NC(=O)NN)C(c2ccc(OC)cc2)C2(O)C(=O)Nc3c(Cl)cc(Cl)cc32)cc1 (stereo not drawn) | > 100 µM (inactive) | > 100 µM (inactive) | > 100 µM (inactive) | 56.8 µM (inactive) | – | – | > 100 µM (inactive) | 61.4 µM (inactive) | – | > 100 µM (inactive) | 56.8 µM (inactive) | > 100 µM (inactive) | > 100 µM (inactive) | > 100 µM (inactive) | – | – | > 100 µM (inactive) | 13.8 µM (inactive) | > 100 µM (inactive) | 90.8 µM (inactive)
4 | O=C(O)CCCCCNC(=O)CCC(CN(CC(=O)OCc1ccccc1)CC(=O)OCc1ccccc1)N(CC(=O)OCc1ccccc1)CC(=O)OCc1ccccc1 (stereo not drawn) | 18.4 µM (inactive) | 17.3 µM (inactive) | 22 µM (inactive) | 10.3 µM (inactive) | 18.3 µM (inactive) | 20.3 µM (inactive) | 17.9 µM (inactive) | 18 µM (inactive) | 20.5 µM (inactive) | 22.9 µM (inactive) | 17.1 µM (inactive) | 14.7 µM (inactive) | 13.3 µM (inactive) | 19 µM (inactive) | 20.7 µM (inactive) | 17.2 µM (inactive) | 15.8 µM (inactive) | 15 µM (inactive) | 17.6 µM (inactive) | –
5 | OC1CCCC1C(O)(C(F)(F)F)C(F)(F)F (stereo not drawn) | > 100 µM (inactive) | > 100 µM (inactive) | > 100 µM (inactive) | > 100 µM (inactive) | > 100 µM (inactive) | > 100 µM (inactive) | > 100 µM (inactive) | > 100 µM (inactive) | > 100 µM (inactive) | > 100 µM (inactive) | > 100 µM (inactive) | > 100 µM (inactive) | > 100 µM (inactive) | > 100 µM (inactive) | > 100 µM (inactive) | > 100 µM (inactive) | > 100 µM (inactive) | > 100 µM (inactive) | > 100 µM (inactive) | –
6 | Cc1cccc2c1C(=O)OC2(c1cccc2ccccc12)c1cccc2ccccc12 | 26.7 µM (inactive) | > 100 µM (inactive) | 70.1 µM (inactive) | – | > 100 µM (inactive) | – | 81.1 µM (inactive) | 52.8 µM (inactive) | – | > 100 µM (inactive) | > 100 µM (inactive) | 27.2 µM (inactive) | – | > 100 µM (inactive) | – | – | 79.3 µM (inactive) | > 100 µM (inactive) | > 100 µM (inactive) | 40.7 µM (inactive)
7 | O=C(CCN1CC2CCC(CC2)C1)c1cccs1 | 18.4 µM (inactive) | 21.1 µM (inactive) | 18.3 µM (inactive) | 1.85 µM (inactive) | 18.7 µM (inactive) | 24.6 µM (inactive) | > 53 µM (inactive) | 5.35 µM (inactive) | 27.3 µM (inactive) | > 100 µM (inactive) | 19.1 µM (inactive) | 19 µM (inactive) | 6.01 µM (inactive) | 17.1 µM (inactive) | 20.9 µM (inactive) | 6.92 µM (inactive) | 8.77 µM (inactive) | 20.7 µM (inactive) | 19.9 µM (inactive) | –
8 | COC(=O)C1=C(C)N(NC(=O)c2ccccc2)C2(O)CCCC(=O)C12C (stereo not drawn) | > 100 µM (inactive) | > 100 µM (inactive) | > 100 µM (inactive) | > 100 µM (inactive) | > 100 µM (inactive) | – | > 100 µM (inactive) | – | – | 4.37 µM (inactive) | > 100 µM (inactive) | > 100 µM (inactive) | > 100 µM (inactive) | > 100 µM (inactive) | > 100 µM (inactive) | – | > 100 µM (inactive) | – | > 100 µM (inactive) | > 100 µM (inactive)
9 | O=C1OCC/C1=C/c1ccc(/N=N/c2c(O)ccc3ccccc23)cc1 | 19.5 µM (inactive) | 18.1 µM (inactive) | 18.7 µM (inactive) | 21.6 µM (inactive) | 19.7 µM (inactive) | 20.1 µM (inactive) | 39.4 µM (inactive) | 19.1 µM (inactive) | 27.2 µM (inactive) | 19.4 µM (inactive) | 17.6 µM (inactive) | 19.3 µM (inactive) | 27.4 µM (inactive) | 18.9 µM (inactive) | 18.4 µM (inactive) | 39.4 µM (inactive) | 19.1 µM (inactive) | 22.6 µM (inactive) | 5.11 µM (inactive) | –
10 | O=C(CSC1=NCCN1)c1ccccc1 | > 100 µM (inactive) | > 100 µM (inactive) | > 100 µM (inactive) | > 100 µM (inactive) | > 100 µM (inactive) | > 100 µM (inactive) | > 100 µM (inactive) | > 100 µM (inactive) | > 100 µM (inactive) | > 100 µM (inactive) | > 100 µM (inactive) | > 100 µM (inactive) | > 100 µM (inactive) | > 100 µM (inactive) | > 100 µM (inactive) | > 100 µM (inactive) | > 100 µM (inactive) | < 0.01 µM (active) | > 100 µM (inactive) | –
11 | C/C(=C1/N=C(c2cc([N+](=O)[O-])ccc2Cl)N(C2=CC=C(Cl)CC2)C1=O)c1cc2ccccc2oc1=O | 14.4 µM (inactive) | 36.8 µM (inactive) | 49.2 µM (inactive) | 32.4 µM (inactive) | 32.7 µM (inactive) | – | 44.1 µM (inactive) | – | – | 29 µM (inactive) | 37.4 µM (inactive) | – | – | 26.3 µM (inactive) | 10.7 µM (inactive) | – | 21.8 µM (inactive) | 20 µM (inactive) | 19.9 µM (inactive) | 19.3 µM (inactive)
12 | CCC1C2Cc3ccc(O)cc3C1(CC)CCN2C (stereo not drawn) | > 100 µM (inactive) | > 100 µM (inactive) | > 100 µM (inactive) | > 100 µM (inactive) | > 100 µM (inactive) | > 100 µM (inactive) | > 100 µM (inactive) | > 100 µM (inactive) | > 100 µM (inactive) | > 100 µM (inactive) | > 100 µM (inactive) | > 100 µM (inactive) | > 100 µM (inactive) | > 100 µM (inactive) | > 100 µM (inactive) | > 100 µM (inactive) | > 100 µM (inactive) | > 100 µM (inactive) | > 100 µM (inactive) | –
13 | O=C1CSSCC(=O)Nc2ccccc2N1 | > 100 µM (inactive) | > 100 µM (inactive) | > 100 µM (inactive) | > 100 µM (inactive) | > 100 µM (inactive) | > 100 µM (inactive) | > 100 µM (inactive) | > 100 µM (inactive) | > 100 µM (inactive) | > 100 µM (inactive) | > 100 µM (inactive) | > 100 µM (inactive) | > 100 µM (inactive) | > 100 µM (inactive) | > 100 µM (inactive) | > 100 µM (inactive) | > 100 µM (inactive) | > 100 µM (inactive) | > 100 µM (inactive) | –
14 | Nc1ccccc1CCCC(=O)O | > 100 µM (inactive) | > 100 µM (inactive) | > 100 µM (inactive) | > 100 µM (inactive) | > 100 µM (inactive) | > 100 µM (inactive) | > 100 µM (inactive) | > 100 µM (inactive) | > 100 µM (inactive) | > 100 µM (inactive) | > 100 µM (inactive) | > 100 µM (inactive) | > 100 µM (inactive) | > 100 µM (inactive) | > 100 µM (inactive) | > 100 µM (inactive) | > 100 µM (inactive) | 45.4 µM (inactive) | > 100 µM (inactive) | –
15 | Cn1cnc([N+](=O)[O-])c1Sc1nccc(O)n1 | > 100 µM (inactive) | > 100 µM (inactive) | > 100 µM (inactive) | > 100 µM (inactive) | > 100 µM (inactive) | – | > 100 µM (inactive) | > 100 µM (inactive) | – | > 100 µM (inactive) | > 100 µM (inactive) | – | > 100 µM (inactive) | > 100 µM (inactive) | > 100 µM (inactive) | – | > 100 µM (inactive) | – | > 100 µM (inactive) | > 100 µM (inactive)
